Results published in US20130131008A1, “LIPOPHILIC MONOPHOSPHORYLATED DERIVATIVES AND NANOPARTICLES” (BOARD OF REGENTS, THE UNIVERSITY OF TEXAS SYSTEM, priority 2011, published 2013).

Key:
[1] = test system: CCRF-CEM/dCK−/− cells; assay: In vitro cytotoxicity assay (MTT), 72 h, dCK deficient cells; assay type: cell-based, human
Source text: Human leukemia cell line CCRF-CEM (CCL-119), human pancreatic cancer cell lines PANC-1 (CRL-1469), MIA PaCa-2 (CRL-1420), and BxPC-3 (CRL-1687), human breast adenocarcinoma cell line MCF-7 (HTB-22), and mouse lung cancer cell line TC-1 (CRL-2785) were from the American Type Culture Collection (Rockville, Md.). CCRF-CEM-AraC-8C cells (hENT1 deficient) and CCRF-CEM/dCK^−/− cells (dCK deficient) were kindly provided by Dr. Buddy Ullmann (Oregon Health & Science University, Portland, Oreg.) and Dr. Margaret Black (Washington State University, Pullman, Wash.), respectively. L1210 wt and L1210 10K were kindly supplied by Dr. Lars Petter Jordheim (Université Claude Bernard Lyon I, Lyon, France). TC-1-GR cells were previously developed in our lab. CCRF-CEM, CCRF-CEM-AraC-8C, CCRF-CEM/dCK^−/−, L1210 wt, L1210 10K, TC-1, and TC-1-GR cells were cultured in RPMI 1640 medium. MCF-7 and PANC-1 cells were cultured in Dulbecco's modified Eagle medium (DMEM), MIA PaCa-2 cells were cultured in DMEM medium with 2.5% horse serum. All media were supplemented with 10% fetal bovine serum (FBS), 100 U/mL of penicillin, and 100 μg/mL of streptomycin (all from Invitrogen, Carlsbad, Calif.).
Cells (5,000/well) were seeded in 96-well plates. After overnight incubation, they were treated with various concentrations of gemcitabine HCl, gemcitabine derivatives, or gemcitabine derivatives in nanoparticles at 37° C., 5% CO2. TC-1 and TC-1-GR cells were incubated for 48 h. CCRF-CEM, CCRF-CEM-AraC-8C, CCRF-CEM/dCK^−/−, L1210 wt, L1210 10K, and MCF-7 cells were incubated for 72 h, and MIA PaCa-2 and PANC-1 for 96 h. […] The number of viable cells after the incubation was determined using an MTT assay. […] Absorbance was measured using a BioTek Synergy™ HT Multi-Mode Microplate Reader (BioTek Instruments, Winooski, Vt.) at 570 nm and 630 nm. The fraction of affected (dead) cells (Fa) and the fraction of unaffected (live) cells (Fu) at every dose were calculated, and the Log(Fa/Fu) values were plotted against the Log(concentration of gemcitabine). […]

[2] = test system: TC-1 mouse lung cancer cells (s.c. tumors); assay: Anti-tumor activity of PLGA-GemC18-NPs in TC-1 tumor-bearing mice (Example 19); assay type: in vivo; settings: C57BL/6 mice, i.v. twice a week from day 11, 150 μg GemC18 per mouse per dose or molar equivalent gemcitabine HCl
Method: The anti-tumor activity of the PLGA-GemC18-NPs was evaluated in female C57BL/6 mice (18-20 g, 6-8 weeks, n=4-5) that were subcutaneously (s.c.) injected with TC-1 mouse lung cancer cells (ATCC # CRL-2785, 5×10^5 cells/mouse) in the right flank. Mouse hair was carefully trimmed at the injection site 1 day prior to the injection. PLGA-GemC18-NPs, GemC18-free NP (PLGA-NPs), gemcitabine hydrochloride (HCl) (U.S. Pharmacopeia; Rockville, Md.) and sterile mannitol (5%, w/v) were intravenously (i.v) injected starting on day 11, twice a week until the end of the study. The dose of the GemC18 was 150 μg per mouse per dose, or the molar equivalent dose for gemcitabine HCl. Tumor size was determined 2-3 times a week and calculated using the formulas: diameter (mm)=[length+width]/2.

[3] = test system: PANC-1 cells; settings: literature value; read-out: IC50 in PANC-1 cells reported by Duxbury et al.; cited from earlier work

Cl.Nc1ccn([C@@H]2O[C@H](CO)[C@@H](O)C2(F)F)c(=O)n1 [Gemcitabine HCl, 2′,2′-difluorodeoxycytidine HCl, reference compound]
Ratio of IC50 in CCRF-CEM/dCK−/− to that in CCRF-CEM [1]: 82,897 | IC50 ([1]; Homo sapiens, CCRF-CEM, MTT, 72 h incubation, dCK deficient): 240 ± 29 µM | TC-1 tumor growth (tumor diameter) [2]: only slightly delayed the TC-1 tumor growth | IC50 [3]: 0.05 µM
